# Patent US11707557B2, “Compositions and devices incorporating water-insoluble therapeutic agents and methods of the use thereof” (COOK MEDICAL TECHNOLOGIES LLC, priority 2014, dated 2023)
# Where two headings read alike, the source gives them in different places.
# How the values were obtained:
# [1] = system: Human umbilical vein endothelial cells (HUVEC); assay: Accumulation of docetaxel in HUVEC cells and effect of ultrasound; assay type: cell-based
# Description: Human umbilical vein endothelial cells (HUVEC) and the associated culture media were obtained from Lonza Chemicals (Basel, Switzerland). All cells were applied to 48 well plates in respective media at a concentration of 5000 cells per well or filter. The cells were allowed to equilibrate for 3 days at which time they became approximately 80% confluent. In the 48 well plates, only 24 wells were used per plate so that wells with cells appeared in a checkerboard pattern.
# After 2 days, cells were ready for drug incubation with or without ultrasound treatment. The drug solutions (including radiolabelled docetaxel) were applied to the cells (0.5 ml) for 2 hours. Some cells were then ultrasonicated. Briefly, cells received a single 10-s burst of ultrasound at 4 MHz with a power density of 30 W/cm^2.
# After ultrasound treatment, the drug solution was immediately removed and all cells were washed three times with 500 ul of HBSS. The amount of docetaxel retained in the cells was determined by lysing the cells in 200 ul of lysis buffer (2% Triton X100 containing 33% DMSO) and quantitation by liquid scintillation counting.
# mdck-mdr cells = assay: Uptake and transport of docetaxel through MDCK-MDR cell monolayers (transwell); assay type: in vitro ADME, canine; conditions: EGCG-docetaxel solution 250 micrograms/ml, 2 hours 37° C., compared to tween or diblock copolymer micellar solutions
# Description: (§1) The canine kidney cells, known as MDCK cells, are a non cancer proliferating cell line from canine kidneys. The MDR derivative of these cells is a multi-drug resistant version. The cell lines MDCK and MDCK-MDR are routinely used in the field of drug resistance because in the MDCK cells drugs can accumulate and kill the cells whereas the MDR cells contain drug efflux proteins that efflux the drug so that much higher drug doses are needed to maintain intracellular concentrations sufficient to kill these cells. […]
# (§2) MDCK cells were seeded at 10000 cells per transwell membrane (Becton and Dickenson: 0.3 microns, 1 cm diameter) and grown for one week until a continuous monolayer was present. Drug at 250 micrograms/ml (doped with ^3H docetaxel, with carrier (tween, diblock (2000 40-60) PDLLA-mepeg or EGCG), all in hanks buffer, were added to the top well (0.4 ml) with 1.2 ml of hanks buffer in the base well. The wells were incubated at 37° C. for two hours. The transwells were then disassembled and the amount of drug in the base reservoir (transported through the cells) or in the cells (determined by dissolution of the filter after 3 washes in hanks buffer) was determined by liquid scintillation counting.
# [2] = Solubility of drug in EGCG or tannic acid solutions (dried down, PBS or water added, 0.22 micron filtered, HPLC or absorbance)
# Experimental: (§3) PBS (EGCG) or water (tannic acid) was added and the final solution filtered through a 0.22 micron filter to remove any particulates. The solutions were analyzed for drug concentration using HPLC.
# (§4) PBS (EGCG) or water (tannic acid) was added and the final solution filtered through a 0.22 micron filter to remove particulates. The solution was then analyzed for drug concentration using absorbance spectroscopy at 450 nm.
# (§5) PBS (EGCG) or water (tannic acid) was added and the final solution was filtered through a 0.22 micron filter to remove any particulates and the solution was analyzed for drug concentration using HPLC.
# (§6) PBS (EGCG) or water (tannic acid) was added and the final solution filtered through a 0.22 micron filter to remove any particulates and the solution was analyzed for drug concentration using HPLC.
# (§7) PBS (EGCG) or water (Tannic acid) was added and the final solution was filtered through a 0.22 um filter to remove any particulates and the solution was analyzed for drug concentration using HPLC.
# (§8) Method: drug and EGCG or tannic acid were dried down from acetonitrile (or methanol for tannic acid) solutions at various drug to EGCG or tannic acid ratios. PBS (EGCG) or water (Tannic acid pH adjusted to 7) was added and the final solution was filtered through a 0.22 um filter to remove any particulates and the solution was analyzed for drug concentration using HPLC methods.
# MDCK cells = assay: Uptake and transport of docetaxel through MDCK cell monolayers (transwell); assay type: in vitro ADME, canine; conditions: EGCG-docetaxel solution 250 micrograms/ml, 2 hours 37° C., compared to tween or diblock copolymer micellar solutions
# Description: as §1, §2
# [3] = 24 h
# Experimental: as §3, §4, §5, §6, §7, §8
# fresh rat aorta artery = assay: Paclitaxel uptake into artery tissue from coated balloon catheter; assay type: in vitro ADME; conditions: for available paclitaxel taken up by the artery / available paclitaxel washed out from the artery: ignoring catheter residual and gloves wash
# Experimental: A 2-3 cm strip of fresh rat aorta artery was placed over a 200 microliter pipette tip and fed onto the deflated balloon catheter to mimic the feeding of the balloon into the blood vessel. The balloon was then inflated and the system was left for 2 minutes at 37° C. in a bath of Hanks buffered salt solution (HBSS). The balloon was then deflated and 300 microliters of HBSS pipetted into the artery and the wash out collected in a centrifuge tube. This wash step was repeated three times. Because the handler's gloves were moist and had contacted the balloon (and therefore absorbed some EGCG/drug) the gloves fingers were washed extensively in 100 ml of HBSS.
# The aorta tissue was placed in 500 microliters of tissue solubilizer and left at 60° C. for 4 hours to digest. The contents were then placed in a scintillation counter. The deployed catheter balloon was observed after the procedure. Some of the balloon had not deployed (the balloon was tight in the aorta and not fully inflated) and traces of the reddish colored EGCG/drug could be observed in the folds. […] The catheter balloon was then inflated in 5 ml of acetonitrile to recover the undissolved EGCG and measured by scintillation counting. All other fractions (aorta wash and gloves wash were also counted. These four fractions (aorta, gloves, catheter residual and aorta wash) accounted for all drug and the total scintillation count form everything was taken and 100% of the applied drug.
# A balloon catheter was inflated and revolved along its horizontal axis. The drug/EGCG solution was slowly pipetted onto the balloon using 25 microliters at a time and dried with gentle heat from an electric blowdryer. A 2-3 cm strip of fresh rat aorta artery was placed over a 200 microliter pipette tip and fed onto the deflated balloon catheter to mimic the feeding of the balloon into the blood vessel. The balloon was then inflated and the system was sonicated for 2 minutes at 37° C. in Hanks buffered salt solution (HBSS) (4 MHz, 30 watts/cm2). The balloon was then deflated and 300 microl of (HBSS) was pipetted into the artery and the wash out collected in a centrifuge tube. This wash step was repeated three times. Samples were collected as in the previous example.
# A balloon catheter was inflated and revolved along its horizontal axis. The drug/diblock solution was slowly pipetted onto the balloon using 25 microliters at a time and dried with gentle heat from an electric blowdryer. […] A 2-3 cm strip of fresh rat aorta artery was placed over a 200 ul pipette tip and fed onto the deflated balloon catheter to mimic the feeding of the balloon into the blood vessel. The system was then immersed in Hanks buffered salt solution (HBSS) at 37° C. for 2 minutes.
# A balloon catheter was inflated and revolved along its horizontal axis. The drug/tannic acid solution was slowly pipetted onto the balloon using 25 microliters at a time and dried with gentle heat from an electric blowdryer.
# [4] = system: canine kidney (mdck) cells; assay: Uptake of paclitaxel into mdck cells with or without EGCG; assay type: cell-based
# Experimental for physchem: as §3, §4, §5, §6, §7, §8
compound,measurement,setting,value
CC(=O)O[C@@]12CO[C@@H]1C[C@H](O)[C@@]1(C)C(=O)[C@H](O)C3=C(C)[C@@H](OC(=O)[C@H](O)[C@@H](NC(=O)OC(C)(C)C)c4ccccc4)C[C@@](O)([C@@H](OC(=O)c4ccccc4)[C@H]21)C3(C)C [docetaxel],effect of ultrasound on uptake of drug into cells,"[1]; 10-s burst, 4 MHz, 30 W/cm^2, all formulations",increased the uptake
same,uptake of docetaxel from ECGC formulations relative to micellar formulation,[1]; 2 hours incubation,approximately 4 fold
same,amount of docetaxel accumulated in the cells or transported through the cells,mdck-mdr cells,increased
same,solubility,"[2]; EGCG solution (200 mg/ml) in PBS, aqueous with cosolvent or surfactant or cyclodextrin, thermodynamic from solid, drug concentration solubilised at maximum EGCG concentration, EGCG 200 mg per ml, PBS",~1500 µg/mL
same,effect of temperature on solubility,[2]; EGCG solutions,no effect of temperature
same,stability of EGCG solutions of the drug,"[2]; EGCG solutions, 24 hours",stable over 24 hours
same,stability of tannic acid solutions of the drug,"[2]; tannic acid concentrations above 150 mg/ml, 24 hrs",not stable over 24 hrs
same,effect of temperature on solubility,"[2]; tannic acid solutions, 37° C. or 50° C. compared to 23° C.",no effect of temperature
same,solubility,"[2]; water, free solubility in water, no EGCG or tannic acid",5 to 7 µg/mL
same,amount of docetaxel accumulated in the cells or transported through the cells,MDCK cells,increased
CC(=O)O[C@H]1C(=O)[C@@]2(C)[C@H]([C@H](OC(=O)c3ccccc3)[C@]3(O)C[C@H](OC(=O)[C@H](O)[C@@H](NC(=O)c4ccccc4)c4ccccc4)C(C)=C1C3(C)C)[C@]1(OC(C)=O)CO[C@@H]1C[C@@H]2O [paclitaxel],solubility,"physchem; aqueous with cosolvent or surfactant or cyclodextrin, thermodynamic from solid, drug concentration solubilised at maximum EGCG concentration",~1000 µg/mL
same,solubility,"physchem; aqueous with cosolvent or surfactant or cyclodextrin, thermodynamic from solid, drug concentration solubilised at maximum tannic acid concentration",~4800 µg/mL
same,solubility,"physchem; water, free solubility in water",1 µg/mL
same,stability of EGCG solutions of the drug,[3],not stable over 24 hours
same,stability of tannic acid solutions of the drug,[3],stable for 24 hours
same,total paclitaxel associated with the artery,"fresh rat aorta artery; EGCG coating (30 mg EGCG, 300 microgram drug), 2 minutes 37° C.",More than 50%
same,total paclitaxel washed out of the artery,fresh rat aorta artery; EGCG coating with ultrasound,2%
same,total paclitaxel associated with the artery,"fresh rat aorta artery; EGCG coating with ultrasound (4 MHz, 30 watts/cm2), 2 minutes",More than 50%
same,available paclitaxel taken up by the artery,fresh rat aorta artery; EGCG coating with ultrasound,approximately 95%
same,available paclitaxel washed out from the artery,fresh rat aorta artery; EGCG coating with ultrasound,less than 5%
same,total paclitaxel washed out of the artery,"fresh rat aorta artery; EGCG coating, 2 minutes 37° C.",2%
same,available paclitaxel taken up by the artery,fresh rat aorta artery; EGCG coating,approximately 95%
same,available paclitaxel washed out from the artery,fresh rat aorta artery; EGCG coating,less than 5%
same,total paclitaxel washed out of the artery,fresh rat aorta artery; diblock copolymer coating,less than 2%
same,total paclitaxel associated with the artery,"fresh rat aorta artery; diblock copolymer coating (6 mg), 2 minutes",Approximately 10%
same,residual on the catheter,fresh rat aorta artery; tannic acid coating,approximately 29%
same,total paclitaxel associated with the artery,fresh rat aorta artery; tannic acid coating,Approximately 40%
same,total paclitaxel washed out of the artery,fresh rat aorta artery; tannic acid coating,less than 1%
same,available drug transferred to the tissues,"fresh rat aorta artery; tannic acid coating, ignoring drug on catheter and gloves",over 95%
same,paclitaxel level in cells,[4]; co-incubated with EGCG at 50 microg/ml,≤ 2000 pg/mg
same,paclitaxel level in cells,[4]; paclitaxel alone,approximately 200 pg/mg cellular protein
same,increase in drug uptake with EGCG,[4]; with EGCG versus alone,10 fold
